Test results as given in ChEMBL document CHEMBL1201862, “PubChem BioAssay data set” (2004).
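Exposure lasted 48 hours, with cells grown in 96-well plates and compounds tested at five concentrations. At the GI50, growth is halved.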 Active and inactive are the calls of the source. Rule as the data show it: active = GI50 up to about 1.1 µM and inactive = higher.

How the values were obtained:
Test in all cases: DTP human tumour cell line panel, 48 h
NCI/ADR-RES = tested on: NCI/ADR-RES
SF-268 = tested on: SF-268
MDA-MB-435 = tested on: MDA-MB-435
SK-MEL-2 = tested on: SK-MEL-2
SW-620 = tested on: SW-620
LOX IMVI = tested on: LOX IMVI
CAKI-1 = tested on: CAKI-1
OVCAR-5 = tested on: OVCAR-5
SNB-75 = tested on: SNB-75
HL-60 = tested on: HL-60
A498 = tested on: A498
MCF7 = tested on: MCF7
M14 = tested on: M14
HOP-92 = tested on: HOP-92
NCI-H522 = tested on: NCI-H522
M19-MEL = tested on: M19-MEL
BT-549 = tested on: BT-549
786-0 = tested on: 786-0
U-251 = tested on: U-251
XF498 = tested on: XF498
COLO 205 = tested on: COLO 205
SF-295 = tested on: SF-295
KM-20L2 = tested on: KM-20L2
A549 = tested on: A549
KM12 = tested on: KM12
UO-31 = tested on: UO-31
T47D = tested on: T47D
MDA-MB-231 = tested on: MDA-MB-231
SN12C = tested on: SN12C
SK-MEL-5 = tested on: SK-MEL-5
ACHN = tested on: ACHN
TK-10 = tested on: TK-10
HOP-18 = tested on: HOP-18
DU-145 = tested on: DU-145
OVCAR-8 = tested on: OVCAR-8
SF-539 = tested on: SF-539
SK-OV-3 = tested on: SK-OV-3
OVCAR-4 = tested on: OVCAR-4
UACC-62 = tested on: UACC-62
K562 = tested on: K562
MOLT-4 = tested on: MOLT-4
NCI-H226 = tested on: NCI-H226
EKVX = tested on: EKVX
PC-3 = tested on: PC-3
LXFL 529 = tested on: LXFL 529
Malme-3M = tested on: Malme-3M
RXF 393 = tested on: RXF 393
RPMI-8226 = tested on: RPMI-8226
MDA-N = tested on: MDA-N
IGROV-1 = tested on: IGROV-1
SNB-78 = tested on: SNB-78
HT-29 = tested on: HT-29
DMS-114 = tested on: DMS-114
CCRF-CEM = tested on: CCRF-CEM
HCC 2998 = tested on: HCC 2998
SR = tested on: SR
HCT-15 = tested on: HCT-15
NCI-H460 = tested on: NCI-H460
DMS-273 = tested on: DMS-273
SK-MEL-28 = tested on: SK-MEL-28
HOP-62 = tested on: HOP-62
HCT-116 = tested on: HCT-116
NCI-H23 = tested on: NCI-H23
DLD-1 = tested on: DLD-1
SNB-19 = tested on: SNB-19
UACC-257 = tested on: UACC-257
OVCAR-3 = tested on: OVCAR-3
RXF 631 = tested on: RXF 631

Compound: C=C1CC2CC[C@@]34C[C@H]5O[C@@H]6C(O[C@H]7CC[C@H](CC(=O)OC8[C@H](C)C9OC%10C[C@]%11(C[C@@H]%12O[C@]%13(C[C@H](C)[C@@H]%14O[C@H]([C@H](O)C[C@H](O)CO)C[C@@H]%14O%13)C[C@H](C)[C@@H]%12O%11)OC%10CC9O[C@H]8C[C@H]8O[C@H](CC[C@@H]1O2)C[C@@H](C)C8=C)O[C@H]7[C@@H]6O3)[C@@H]5O4 (some centres undefined)
- GI50 (NCI/ADR-RES): 0.516 nM (active)
- GI50 (SF-268): 3.76 nM (active)
- GI50 (MDA-MB-435): 0.1 nM (active)
- GI50 (SK-MEL-2): 1.49 nM (active)
- GI50 (SW-620): 0.482 nM (active)
- GI50 (LOX IMVI): 0.597 nM (active)
- GI50 (CAKI-1): 0.491 nM (active)
- GI50 (OVCAR-5): 8.45 nM (active)
- GI50 (SNB-75): 0.321 nM (active)
- GI50 (HL-60): 0.237 nM (active)
- GI50 (A498): 1.08 nM (active)
- GI50 (MCF7): 0.255 nM (active)
- GI50 (M14): 1.43 nM (active)
- GI50 (HOP-92): 1.66 nM (active)
- GI50 (NCI-H522): 0.211 nM (active)
- GI50 (M19-MEL): 0.618 nM (active)
- GI50 (BT-549): 1310 nM (inactive)
- GI50 (786-0): 2.46 nM (active)
- GI50 (U-251): 0.899 nM (active)
- GI50 (XF498): 1.23 nM (active)
- GI50 (COLO 205): 0.492 nM (active)
- GI50 (SF-295): 0.46 nM (active)
- GI50 (KM-20L2): 0.395 nM (active)
- GI50 (A549): 1.47 nM (active)
- GI50 (KM12): 0.46 nM (active)
- GI50 (UO-31): 5.39 nM (active)
- GI50 (T47D): 2650 nM (inactive)
- GI50 (MDA-MB-231): 0.728 nM (active)
- GI50 (SN12C): 4.05 nM (active)
- GI50 (SK-MEL-5): 0.24 nM (active)
- GI50 (ACHN): 4.11 nM (active)
- GI50 (TK-10): 6.81 nM (active)
- GI50 (HOP-18): < 10 nM (active)
- GI50 (DU-145): 0.113 nM (active)
- GI50 (OVCAR-8): 2.22 nM (active)
- GI50 (SF-539): 0.676 nM (active)
- GI50 (SK-OV-3): 2.21 nM (active)
- GI50 (OVCAR-4): 5.05 nM (active)
- GI50 (UACC-62): 0.469 nM (active)
- GI50 (K562): 0.484 nM (active)
- GI50 (MOLT-4): 0.752 nM (active)
- GI50 (NCI-H226): 2.31 nM (active)
- GI50 (EKVX): 0.141 nM (active)
- GI50 (PC-3): 0.106 nM (active)
- GI50 (LXFL 529): 1.29 nM (active)
- GI50 (Malme-3M): 1.31 nM (active)
- GI50 (RXF 393): 0.674 nM (active)
- GI50 (RPMI-8226): 0.255 nM (active)
- GI50 (MDA-N): 0.1 nM (active)
- GI50 (IGROV-1): 2.18 nM (active)
- GI50 (SNB-78): 2.61 nM (active)
- GI50 (HT-29): 0.372 nM (active)
- GI50 (DMS-114): 0.37 nM (active)
- GI50 (CCRF-CEM): 0.588 nM (active)
- GI50 (HCC 2998): 2.01 nM (active)
- GI50 (SR): 0.498 nM (active)
- GI50 (HCT-15): 0.935 nM
- GI50 (NCI-H460): 0.859 nM (active)
- GI50 (DMS-273): 0.538 nM (active)
- GI50 (SK-MEL-28): 2.19 nM (active)
- GI50 (HOP-62): 1.31 nM (active)
- GI50 (HCT-116): 0.513 nM (active)
- GI50 (NCI-H23): 0.605 nM (active)
- GI50 (DLD-1): 1.8 nM (active)
- GI50 (SNB-19): 1.91 nM (active)
- GI50 (UACC-257): 0.8 nM (active)
- GI50 (OVCAR-3): 0.303 nM (active)

Compound: CCC1C2C=CC(CC2)N1S(=O)(=O)c1ccc(C)cc1 (centres undefined)
- GI50 (SF-268): 20800 nM (inactive)
- GI50 (SK-MEL-2): 14000 nM (inactive)
- GI50 (SW-620): 16800 nM (inactive)
- GI50 (LOX IMVI): 15800 nM (inactive)
- GI50 (CAKI-1): 20800 nM (inactive)
- GI50 (OVCAR-5): 22300 nM (inactive)
- GI50 (SNB-75): > 10000 nM (inactive)
- GI50 (HL-60): 4220 nM (inactive)
- GI50 (A498): 33900 nM (inactive)
- GI50 (M14): 31000 nM (inactive)
- GI50 (NCI-H522): 20800 nM (inactive)
- GI50 (M19-MEL): 31400 nM (inactive)
- GI50 (786-0): 31900 nM (inactive)
- GI50 (COLO 205): 21700 nM (inactive)
- GI50 (SF-295): 29200 nM (inactive)
- GI50 (KM-20L2): 17300 nM (inactive)
- GI50 (A549): 28200 nM (inactive)
- GI50 (KM12): 24400 nM (inactive)
- GI50 (UO-31): 12900 nM (inactive)
- GI50 (SN12C): 16400 nM (inactive)
- GI50 (SK-MEL-5): 18400 nM (inactive)
- GI50 (ACHN): 35900 nM (inactive)
- GI50 (OVCAR-8): > 10000 nM (inactive)
- GI50 (SF-539): 20700 nM (inactive)
- GI50 (SK-OV-3): 26100 nM (inactive)
- GI50 (OVCAR-4): 31800 nM (inactive)
- GI50 (UACC-62): 11200 nM (inactive)
- GI50 (K562): 18100 nM (inactive)
- GI50 (MOLT-4): 32600 nM (inactive)
- GI50 (NCI-H226): 283 nM (active)
- GI50 (EKVX): 27800 nM (inactive)
- GI50 (LXFL 529): 17300 nM (inactive)
- GI50 (Malme-3M): 21400 nM (inactive)
- GI50 (RXF 631): 27400 nM (inactive)
- GI50 (RPMI-8226): 12900 nM (inactive)
- GI50 (HT-29): 24400 nM (inactive)
- GI50 (DMS-114): 20300 nM (inactive)
- GI50 (CCRF-CEM): 22400 nM (inactive)
- GI50 (SR): 22400 nM (inactive)
- GI50 (HCT-15): 22800 nM
- GI50 (NCI-H460): 23000 nM (inactive)
- GI50 (DMS-273): 18200 nM (inactive)
- GI50 (HOP-62): 27600 nM (inactive)
- GI50 (HCT-116): 30900 nM (inactive)
- GI50 (SNB-19): 24400 nM (inactive)
- GI50 (UACC-257): 20900 nM (inactive)
- GI50 (OVCAR-3): 33700 nM (inactive)
